Read-outs that look alike come from different tables or passages of the source. Values belong to the compound of their own block, whether it stands above or below them.
Legend:
cytochrome P450BM3 = molecular target: T1, cytochrome P450BM3 (Priestia megaterium, UniProt P14779); assay: Whole-cell PECAN detection of cytochrome P450BM3 activity; type: cell-based, E. coli; details: 2 mM probe, 30° C., 16 h; versus GFP control
T1 construct: expressed in transfected cells; host or cells: E. coli liquid culture in terrific broth with d-aminolevulinic acid
T1 sequence (P14779 whole entry): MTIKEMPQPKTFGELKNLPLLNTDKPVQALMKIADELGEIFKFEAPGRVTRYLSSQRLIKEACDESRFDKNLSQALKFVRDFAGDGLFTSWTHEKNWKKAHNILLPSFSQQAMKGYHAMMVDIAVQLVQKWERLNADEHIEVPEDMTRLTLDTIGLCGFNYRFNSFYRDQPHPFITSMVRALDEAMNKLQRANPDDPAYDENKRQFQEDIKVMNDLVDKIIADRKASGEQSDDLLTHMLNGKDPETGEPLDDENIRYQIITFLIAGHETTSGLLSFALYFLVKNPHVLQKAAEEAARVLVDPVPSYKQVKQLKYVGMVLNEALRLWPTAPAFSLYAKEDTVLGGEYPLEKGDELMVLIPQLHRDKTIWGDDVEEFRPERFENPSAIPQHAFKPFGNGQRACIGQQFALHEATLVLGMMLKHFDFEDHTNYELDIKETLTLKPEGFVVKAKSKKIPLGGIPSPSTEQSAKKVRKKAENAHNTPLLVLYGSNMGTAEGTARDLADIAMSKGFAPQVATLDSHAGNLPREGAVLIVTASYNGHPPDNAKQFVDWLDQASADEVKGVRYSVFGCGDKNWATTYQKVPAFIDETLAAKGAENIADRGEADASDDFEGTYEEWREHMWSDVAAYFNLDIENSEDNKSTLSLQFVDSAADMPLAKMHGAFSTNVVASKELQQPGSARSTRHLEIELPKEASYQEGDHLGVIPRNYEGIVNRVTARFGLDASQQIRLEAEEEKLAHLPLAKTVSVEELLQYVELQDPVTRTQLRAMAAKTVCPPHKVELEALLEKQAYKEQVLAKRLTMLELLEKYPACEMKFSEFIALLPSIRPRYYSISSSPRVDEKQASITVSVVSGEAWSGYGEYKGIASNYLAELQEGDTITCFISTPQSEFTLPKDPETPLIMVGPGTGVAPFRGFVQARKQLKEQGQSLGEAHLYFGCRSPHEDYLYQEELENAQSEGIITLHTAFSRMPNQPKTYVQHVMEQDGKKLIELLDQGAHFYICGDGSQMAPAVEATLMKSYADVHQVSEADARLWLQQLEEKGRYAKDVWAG
Description: The CAEE PECAN probe was used to detect cytochrome P450BM3 activity in whole E. coli cell culture expressing cytochrome P450BM3 using NIMS technology. To 5 mL of E. coli liquid culture in teriffic broth supplemented with 0.5 mM d-aminolevulinic acid, expressing either GFP or cytochrome P450BM3, was added the CAEE PECAN probe to a final concentration of 2 mM and DMSO to a final concentration of 2%. The bacterial cultures were shaken in baffled borosilicate culture tubes at 30° C. for 16 h and quenched with an equal volume of methanol. 5 uL, of this mixture was then mixed with 5 uL, of click reaction solution [50 mM Tris(3-hydroxypropyltriazolylinethyl)amine (THPTA), 50 mM sodium ascorbate, 10 mM copper sulfate and 0.5 mM PECAN tag Nz-NPrg (structure shown below) in 50:50 water:methanol] and left to react overnight. NIMS analysis was performed as described above.

[1] = molecular target: T2, chloramphenicol acetyltransferase (CAT) (Escherichia coli, UniProt P62577); assay: PECAN detection of CAT activity in E. coli cell lysate; type: biochemical; set-up: expressed in transfected cells; host or cells: E. coli DH1 harboring pBbB8k-CAT, arabinose-induced, sonicated lysate; details: cell lysate with added acetyl-CoA, 2 mM probe
T2 sequence (P62577 whole entry, looked up): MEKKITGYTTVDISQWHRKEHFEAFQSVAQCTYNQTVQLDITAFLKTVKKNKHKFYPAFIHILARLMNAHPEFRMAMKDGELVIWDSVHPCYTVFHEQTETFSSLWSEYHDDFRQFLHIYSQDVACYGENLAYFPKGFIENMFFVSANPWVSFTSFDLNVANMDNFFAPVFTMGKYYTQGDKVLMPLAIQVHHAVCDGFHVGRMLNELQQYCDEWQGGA
Description: Acetyl-CoA was added to a final concentration of 5 mM and the ChlorHexy PECAN probe to a final concentration of 2 mM. […] 5 uL, of the mixture was then mixed with 5 uL of click reaction solution [50 mM Tris(3-hydroxypropyltriazolylmethyl)amine (THPTA), 50 mM sodium ascorbate, 10 mM copper sulfate and 0.5 mM PECAN tag Nz-N3 (structure shown below) in 50:50 water:methanol] and left to react overnight. […] The spotted area was washed with 2×1 μL deionized water and NIMS spectra were obtained.

[2] = molecular target: T2, chloramphenicol acetyltransferase (CAT); assay: PECAN detection of CAT activity in whole E. coli cell culture; type: cell-based; set-up: expressed in transfected cells; host or cells: E. coli DH1 harboring pBbB8k-CAT, arabinose-induced, sonicated lysate; details: whole cell culture without exogenous cofactors, 2 mM probe, 1 h
Description: For the detection of CAT activity in E. coli cell culture, to 5 mL, of E. coli culture in LB medium expressing either GFP or CAT was added the ChlorHexy PECAN probe to a final concentration of 2 mM. The bacterial cultures were shaken at 37° C. for 1 h and quenched with an equal volume of methanol. 5 uL of this mixture was then mixed with 5 ul, of click reaction solution (recipe described above) and left to react overnight. NIMS analysis was performed as described above.
In FIG. 25, the 42-mass unit shift relative to the GFP control was the mass of a single acetyl group attached to the probe.

[3] = tested on: Alicycyclobacillus acidocaldarius β-glucosidase; assay: Steady-state kinetic analysis of β-glucosidase with varied cellobiose by oxime-NIMS; type: biochemical; details: 95% confidence level, r^2=0.997
Description: A velocity versus substrate concentration analysis was used to determine the kinetic parameters for β-glucosidase (Aa-βG) from the thermoacidophilic bacterium Alicycyclobacillus acidocaldarius 22 using pure cellobiose as substrate. The experimental data were analyzed using the NonlinearModelFit routine of Mathematic v.8 (Wolfram Research) and v=kcat [S]/(KM+[S]) (kcat, KM, and [S] have their usual definitions).
Glucose formed at different time points from the reaction of Alicycyclobacillus acidocaldarius β-glucosidase with varied cellobiose concentration was quantified and used for steady-state kinetic analysis. The data were analysed using the NonlinearModelFit routine of Mathematic v.8 and v=kcat [S]/(KM+[S]), where kcat, KM, and [S] have their usual definitions.

[4] = tested on: Alicycyclobacillus acidocaldarius β-glucosidase; details: lacking error analysis; read-out: KM, previously reported; cited from earlier work
[5] = molecular target: T2, chloramphenicol acetyltransferase (CAT); details: 0.5 mM probe, 2 mM acetyl-CoA, 5 minutes; versus control lysate
Description: Enzymatic activity assay—Overnight cultures of E. coli DH1 harboring either pBbB8k-GFP or pBbB8k-CAT were diluted 1:10 in LB with 50 μg mL^−1 kanamycin, and grown for 1 hour at 37° C., after which they were induced with 0.2% (w/v) arabinose. After 2 hours of growth, 0.5 mL of the culture was centrifuged at ˜12000×g for 1 minute, the pellet was resuspended in 0.25 mL aqueous 50 mM sodium phosphate (pH 7.5) and sonicated for 30 seconds. Acetyl-CoA was added to a final concentration of 2 mM and 11 to a final concentration of 0.5 mM. The mixture was mixed and incubated at room temperature for 5 minutes, and subsequently quenched with an equal volume of methanol. A 0.3 μL droplet of the mixture was spotted onto a NIMS chip, and the excess liquid removed 5 seconds later by touching it with a Kimwipe (Kimberly-Clark). The spotted area was washed twice with 1 μL deionized water. The NIMS chip was taped to a modified standard MALDI plate, which was then loaded into an Applied Biosystems 4800 MALDI time of flight (TOF)//TOF mass spectrometer. […] Spectra were acquired in manual mode and positive polarity.

Compound: [N-]=[N+]=NCCOC(=O)C1=CCCCC1 [CAEE, cyclohexenecarboxylate azidoethyl ester]
conversion of probe by cytochrome P450BM3 (NIMS mass shift) (cytochrome P450BM3): 16-mass unit shift relative to the GFP control

Compound: C#CCCCC(=O)N[C@H](CO)[C@H](O)c1ccc([N+](=O)[O-])cc1 [ChlorHexy, chloramphenicol 5-hexynamide]
CAT activity detected with probe [1]: CAT activity was detected | CAT activity detected with probe [2]: CAT activity was detected

Km [3]: 12.1 ± 4.6 mM | kcat [3]: 1430 ± 850 s⁻¹
Compound: O=C[C@H](O)[C@@H](O)[C@H](O[C@@H]1O[C@H](CO)[C@@H](O)[C@H](O)[C@H]1O)[C@H](O)CO [cellobiose]
Km [4]: ~10 mM

Compound: (1R,2R)-N-Nz-1-(4-nitrophenyl)propane-1,3-diol [Compound 11]
conversion of probe by CAT (NIMS mass shift) [5]: the peak shifts by 42 mass units, as expected from monoacetylation

Source: patent US20150330992A1, “RAPID DISCOVERY AND SCREENING OF ENZYME ACTIVITY USING MASS SPECTROMETRY” (THE REGENTS OF THE UNIVERSITY OF CALIFORNIA, priority 2012, published 2015)
